Data from patent US20180064712A1, “METHODS OF REDUCING IMMUNE CELL ACTIVATION AND USES THEREOF” (Washington University, priority 2016, published 2018).

Tests used:
IL-15 TM cells [1] = experiment: ECAR after αCD3/28 bead stimulation with or without Mdivi-1; format: cell-based, mice; settings: αCD3/28-conjugated beads, 10 μM Mdivi-1 vs control
Excerpt: (§1) FIG. 6A, FIG. 6B, FIG. 6C, FIG. 6D, FIG. 6E, FIG. 6F, FIG. 6G, FIG. 6H, FIG. 6I, FIG. 6J, FIG. 6K, FIG. 6L, FIG. 6M, and FIG. 6N depict graphs and images showing that mitochondrial cristae remodeling signals metabolic pathway engagement. (FIG. 6A) Basal ECAR of OT-I Opa1^+/+ and Opa1^−/− IL-2 TE cells (left) and day 7 TE cells isolated ex vivo after adoptive transfer from LmOVA infection (right). Data combined from 2-3 experiments (*p=0.0412, ***p<0.0001). (FIG. 6B) OCR at baseline and after indicated drugs, representative of 2 experiments shown as mean±SEM, and (FIG. 6C) D-Glucose-^13C1,2 trace analysis of OT-I Opa1^+/+ and Opa1^−/− IL-2 TE cells. Each lane represents separate mice with a technical replicate. […] (FIG. 6K) IL-15 TM cell, (FIG. 6L, FIG. 6M) bone marrow-derived dendritic cell (BM-DCs) and macrophage (BM-Macs) % ECAR measured at baseline and after media, αCD3/CD28-conjugated bead, LPS, or LPS+IFN-γ injection as indicated. […]
(§2) To more directly test this idea, we assessed ECAR of IL-15 TM cells that were stimulated with αCD3/28-conjugated beads in the presence or absence of Mdivi-1. […] We stimulated bone marrow derived dendritic cells (BM-DCs) and macrophages (BM-Macs) with lipolysaccharide (LPS) with or without interferon (IFN)-γ in the presence or absence of Mdivi-1 and measured ECAR. […]

mitochondrial fission = settings: as disclosed in Cassidy-Stone et al. Developmental Cell 2008; cited from earlier work
BM-Macs = experiment: intracellular Nos2 protein by flow cytometry; format: cell-based, mice; settings: stimulated BM-Macs, Mdivi-1 treated
[2] = test system: Bone marrow derived macrophages (BM-Macs); experiment: ECAR after LPS with or without IFN-γ stimulation with or without Mdivi-1, macrophages; format: cell-based, mice; settings: BM-Macs following stimulation with LPS with or without IFN-γ, 10 μM Mdivi-1
Excerpt: as §1, §2

IL-15 TM cells [3] = experiment: EM analysis of mitochondrial cristae after stimulation with or without Mdivi-1; format: cell-based, mice; settings: IL-15 TM cells activated with αCD3/CD28-conjugated beads or PMA and ionomycin, presence or absence of Mdivi-1
Excerpt: as §1, with “replicate. (FIG. 6D) EM analysis of mitochondrial cristae from TE and TM cells isolated after LmOVA infection and (FIG. 6E) in vitro cultured IL-2 TE and TM cells. Data representative of 2 experiments, scale bar=0.25 μm.” for “replicate.”
To more thoroughly examine this idea, we assessed cristae morphology in TE and TM cells by EM following TCR stimulation. […]

[4] = test system: bone marrow derived dendritic cells (BM-DCs); experiment: ECAR after LPS stimulation with or without Mdivi-1, dendritic cells; format: cell-based, mice; settings: BM-DCs following stimulation with LPS, 10 μM Mdivi-1
Excerpt: as §1, §2

For `COc1cc(-n2c(=S)[nH]c3ccccc3c2=O)c(Cl)cc1Cl` [Mdivi-1], the “aerobic glycolysis (ECAR)” value (IL-15 TM cells [1]) is listed as “did not robustly increase aerobic glycolysis”, the “efficacy relative to Mdivi-1 as mitochondrial fission inhibitor” value (mitochondrial fission) is listed as “full efficacy” and the “nitric oxide synthase 2 (Nos2) protein expression” value (BM-Macs) is listed as “significantly decreased”. For the same molecule, the “aerobic glycolysis (ECAR)” value [2] was “curtailed”, the “cristae morphology by EM” value (IL-15 TM cells [3]) was “intermembrane space widening over time in control cells in comparison to drug treated cells” and the “aerobic glycolysis (ECAR)” value [4] was “curtailed”.
